# Experimental data from patent US11426441B2, “Composition comprising protein phosphatase 1 inhibitory peptide for treating vascular diseases” (BethphaGen Inc., priority 2016, dated 2022).
# No end group written: not given here.
# Experiments:
# [1] = test system: rat aortic smooth muscle cells (RASMCs); assay: RASMC proliferation (PCNA immunostaining, EZ-CyTox cell viability assay); type: cell-based; settings: synthetic conditions (10% FBS), 3 μM peptide
# Experimental: (§1) The rat aortic smooth muscle cells (RASMCs) were isolated from the medial layer of the thoracic aorta derived from male Sprague-Dawley rats (body weight, 180-200 g) by an enzymatic reaction with collagenase (50 U/mL, Worthington) and pancreatic elastase (0.25 mg/mL, Sigma-Aldrich) for 4 hours at 37. The cells were collected and resuspended in DMEM containing 20% (v/v) fetal bovine serum. The resuspension was then plated on collagen I (Sigma-Aldrich)-coated glass coverslips and incubated at 37 in an atmosphere of 5% (v/v) CO2 and 95% (v/v) air. Human coronary smooth muscle cells (HCSMCs), pulmonary arterial endothelial cells (PAECs), and pulmonary arterial smooth muscle cells (PASMCs) were purchased from Lonza and cultured in EBM or SmBM (Lonza) supplemented with 0.5 mg/mL hEGF, […], 1 mg/mL hFGF, […] gentamicin/amphotericin-B, and 5% fetal bovine serum. All the cells were cultured at 37 in 5% (v/v) CO2 and 95% (v/v) air. RASMCs and HCSMCs were, respectively, plated at the densities of 1×10^4 cells/cm^2 and 1×10^5 cells/cm^2 for immunostaining and western blotting experiments. For RASMC and PASMC cell proliferation experiments, these cells were cultured in fetal bovine serum-free media for 3 days, and then proliferation was induced by serum addition.
# Rat aortic smooth muscle cells (RASMCs) were fixed in 4% (w/v) paraformaldehyde at room temperature for 10 min, washed with PBS, and then transmitted with 0.1% (v/v) Triton X-100 in PBS for 40 min. After washing and blocking with 3% (w/v) BSA in PBS, the cells were incubated overnight at room temperature with antibodies against SERCA2a (1:250), SERCA2b (1:250), and PCNA (1:50). On the following day, the cells were washed with PBS and incubated with anti-rabbit and anti-mouse IgG conjugated to Alexa Fluor 488 and 594, respectively, for 1 hour at room temperature. The cells were treated with FluoroGuard antifade reagent (Bio-Rad, Hercules, Calif., USA), and the coverslips were examined under a fluorescent microscope. […]
# SERCA2a [2] = assay: A23187-induced SERCA2a degradation in HCSMCs; type: cell-based, human; settings: HCSMCs pretreated 1 hour with 3 μM ψPLB-SE or 15 μM MDL28170, then 50 μM A23187 2 hours
# Experimental: (§2) FIGS. 4a, 4b, 4c and 4d. (4a-4c) HCSMCs were pretreated with 3 μM ψPLB-SE and 15 μM MDL28170 for 1 hour, and then treated with 50 μM A23187 for 2 hours. (4a) Immunostaining was performed with antibodies against SERCA2a and SERCA2b (green). Nuclei were stained with Hoechst (blue). Representative merged images are shown. Scale bar, 50 μm. (4b) Western blot analysis was performed with cell extracts. Data are expressed as the means±SD (n=3-4; *, P<0.05). (4c) Baseline Ca^2+ concentration was measured by lonOptix calcium imaging system. (4d) RASMC were treated with ψPLB-SE or control peptide under the same conditions as described for FIG. 1B. The baseline Ca^2+ concentration was measured by lonOptix calcium imaging system (*, P<0.05).
# as §1, with “For RASMC and PASMC cell proliferation experiments, these cells were cultured in fetal bovine serum-free media for 3 days, and then proliferation was induced by serum addition.” left out
# Vascular smooth muscle cells (VSMCs) were homogenized in a minimal volume of 50 mM Tris-HCl, pH 7.4, supplemented with a broad-spectrum protease inhibitor cocktail (Calbiochem). […] The blots were scanned and quantified using LAS software.
# cytosolic Ca^2+ level = assay: Intracellular Ca2+ measurement in RASMCs; type: cell-based, rat; settings: 10% FBS, 3 μM peptide
# Experimental: as §2
# The intracellular Ca^2+ level was measured in VSMCs by loading cells with 0.5 μM Fura2-AM (Molecular Probes, Eugene Oreg., USA), a Ca^2+-sensitive indicator, for 15 minutes at 37. The fluorescence was recorded using the lonOptix calcium imaging system. VSMCs were stimulated by the exposure to light emitted by a 75 W halogen lamp through either a 340 nm or 380 nm filter. The fluorescent emissions were detected between 480 nm and 520 nm by a photomultiplier tube after an initial illumination at 340 nm for 0.5 second and then at 380 nm during recording. […]
# phospholamban = assay: PLB phosphorylation in PASMCs (western blotting); type: cell-based; settings: synthetic phenotype, 3 μM
# Experimental: PASMCs were incubated in DMEM supplemented with 0.1% (v/v) FBS for 3 days to induce a contractile phenotype, followed by incubation in DMEM supplemented with 10% (v/v) FBS for 3 days to induce a synthetic phenotype in the presence of 3 μM ψPLB-SE. (18a) Protein expression was quantitatively analyzed through western blotting using antibodies against phospho-PLB (ser16), total PLB, and GAPDH. Data are expressed as the means±SD (n=3˜4; *, P<0.05 vs contractile; #, P<0.05 vs Synthetic-con).
# Human coronary smooth muscle cells (HCSMCs), pulmonary arterial endothelial cells (PAECs), and pulmonary arterial smooth muscle cells (PASMCs) were purchased from Lonza and cultured in EBM or SmBM (Lonza) supplemented with 0.5 mg/mL hEGF, 5 mg/mL insulin, 1 mg/mL hFGF, 50 mg/mL gentamicin/amphotericin-B, and 5% fetal bovine serum. All the cells were cultured at 37 in 5% (v/v) CO2 and 95% (v/v) air. RASMCs and HCSMCs were, respectively, plated at the densities of 1×10^4 cells/cm^2 and 1×10^5 cells/cm^2 for immunostaining and western blotting experiments.
# SERCA2a [3] = assay: Calcium uptake assay (SERCA2a activity) in PASMCs; type: biochemical; settings: synthetic phenotype, 3 μM
# Experimental: Pulmonary arterial smooth muscle cells (PASMCs) were homogenized in a solution of pH 7.0 containing 40 mM imidazole, 10 mM NaF, 1 mM EDTA, 300 mM sucrose, and 0.5 mM DTT, and 250 μg of the lysate was added to an uptake buffer of pH 7.0 containing 100 mM KCl, 5 mM MgCl2, 5 mM NaN3, […], and 40 mM imidazole, and calcium uptake assay was performed with a calcium concentration of pCa 6, containing radioactive isotopes. The cells were treated with 1 μM ruthenium red (Sigma Aldrich), followed by waiting at 37° C. for 3 min, and then treated with 5 mM K-oxalate and Mg-ATP (Sigma Aldrich). In addition, 500 μl of the reaction material was filtered out through a 0.45 μm filter (Millipore) from the start of a reaction to 4 minutes at intervals of 1 minute, and cpm (count per minute) was measured using a scintillation counter (Beckman).
sequence,measurement,setting,value
"RAETIEMPQ (not fully specified) [ψPLB-SE, 9-mer PP1 decoy peptide mimicking phosphorylated PLB; conjugated via GGG linker to cell penetrating peptide dNP2 or TAT]",PCNA expression (active cell division),[1]; RASMCs,completely blocked
same,increased proliferation of RASMCs (cell proliferation assay),[1]; 24 hours,inhibited
same,A23187 (Ca^2+)-dependent degradation of SERCA2a,SERCA2a [2],completely inhibited
same,cytosolic Ca^2+ level elevated under synthetic conditions,cytosolic Ca^2+ level,decreased
same,phosphorylation of the serine 16 residue of phospholamban,phospholamban,restored
same,SERCA2a activity (Ca^2+ uptake assay),SERCA2a [3],restored
